In one data set the test system is H1650 lung cancer cells. Put plainly: Cell viability assay (MTT, IC50 determination). The class given is cell-based. The settings on record: H1650 lung cancer cells, MTT; for IC50: Homo sapiens, NCI-H1650, 48 hours after drug treatment, read-out: H1650 cell viability IC50; for H1650 cell viability, % at 40 uM: 48 hours. As to the method: Cell viability assays were performed according to Denizot, F. and R. Lang, Journal of Immunological Methods, 1986. 89(22): p. 271-277. H1650 lung cancer cells were plated at 150,000 cells per well in a 12 well plate. Twenty-four hours after plating, cells were treated as described with increasing concentrations of drug and control. Forty-eight hours after drug treatment, cells were treated with 100 μL of 3-(4,5-Dimethylthiazol-2-yl)-2,5-diphenyltetrazolium bromide (MTT) and incubated for 2 hours at 37 C. The MTT solution was subsequently replaced with 300 μL of n-propyl alcohol and re-aliquoted to a 96 well plate. Spectrophotometric analysis of each solution was performed using a 96 well plate reader at 600 nm in triplicate.

The nature of data set [1]: In vivo cancer model: body weights and signs of toxicity (Example 2a). Also on record: species or system BALB/c nu/nu mice. The settings on record: 5 mg/kg BID oral gavage. How it is done:
(§1) To assess the in vivo effects of the compounds, subcutaneous xenograft of lung cancer cell line H358 was generated. Cells (5×10^6) were injected into the right flank of 6- to 8-week-old male BALB/c nu/nu mice (Charles River, Wilmington, Mass.). Tumor volume was assessed twice a week by caliper measurement. Mice were randomized to treatment groups based on initial tumor volume average of 200 mm^3 per group. Mice were dosed by oral gavage with 5 mg/kg Example 2a BID. Mouse tumors were measured twice a week for the duration of the study. Mouse body weights were recorded weekly and percentage of mice body weights during treatment was calculated as: weight at each time point/initial weight×100.

For data set [2], the system named is lung cancer cell line H358. Put plainly: In vivo cancer model: subcutaneous H358 xenograft, tumor volume (Example 2a). The settings on record: 5 mg/kg BID oral gavage. The arrangement: species or system BALB/c nu/nu mice. As to the method: as §1

With `O=S(=O)(N[C@@H]1COC[C@H](N2c3ccccc3Oc3ccccc32)[C@H]1O)c1ccc(OC(F)(F)F)cc1` [Example 2a, N-((3R,4R,5S)-4-hydroxy-5-(10H-phenoxazin-10-yl)tetrahydro-2H-pyran-3-yl)-4-(trifluoromethoxy)benzenesulfonamide], the IC50 (commonly the concentration that gives 50% inhibition) in the data set on H1650 lung cancer cells was found to be 15 µM. For the same molecule, in data set [1], the “Signs of toxicity (mucous diarrhea, abdominal stiffness and weight loss)” value is recorded as “no adverse signs were observed”; the “Toxicity as judged from animal body weights versus vehicle control” value is listed as “No statistically significant toxicity was observed”. Besides, in data set [1] (H358 xenograft mice), the “% T/C (mean body weight)” value was 96.36%, the “% T/C (median body weight)” value was determined as 96.92%, the Mean body weight was found to be 30.21 g and the Median body weight is on record as 29.95 g. In data set [2] (treatment day 17), the “% T/C (mean tumor volume)” value is reported as 28.82%, the “% T/C (median tumor volume)” value turned out to be 25.82% and the “Inhibition of tumor growth versus vehicle control” value is on record as “statistically significant inhibition of tumor (T) growth versus vehicle control (C)”. For the same molecule, in data set [2] (treatment day 17, in mm³), the “Mean Tumor Volume (T)” value was 208.64 and the “Median Tumor Volume (T)” value was found to be 191.78. With `O=S(=O)(N[C@@H]1CNC[C@H](n2c3ccc(Cl)cc3c3cc(Cl)ccc32)[C@H]1O)c1ccc(OC(F)(F)F)cc1` [Example 44], the IC50 in the data set on H1650 lung cancer cells came out at 10 µM. The same measure, in the same setting: under `O=S(=O)(N[C@@H]1COC[C@H](n2c3ccccc3c3ccccc32)[C@H]1O)c1ccc(OC(F)(F)F)cc1` [Example 50, N-((3R,4R,5S)-5-(9H-carbazol-9-yl)-4-hydroxytetrahydro-2H-pyran-3-yl)-4-(trifluoromethoxy)benzenesulfonamide] stands 10 µM; under `Cc1ccc2c(c1)c1cc(C)ccc1n2[C@H]1COC[C@@H](NS(=O)(=O)c2ccc(OC(F)(F)F)cc2)[C@@H]1O` [Example 51, N-((3R,4R,5S)-5-(3,6-dimethyl-9H-carbazol-9-yl)-4-hydroxytetrahydro-2H-pyran-3-yl)-4-(trifluoromethoxy)benzenesulfonamide], 5 µM; under `CC(C)(C)OC(=O)N1C[C@@H](NS(=O)(=O)c2ccc(OC(F)(F)F)cc2)[C@H](O)[C@@H](n2c3ccccc3c3ccccc32)C1` [Example 52a, (3S,4R,5R)-tert-butyl 3-(9H-carbazol-9-yl)-4-hydroxy-5-(4-(trifluoromethoxy)phenylsulfonamido)piperidine-1-carboxylate], 5 µM. As for `CC(C)(C)OC(=O)N1C[C@H](NS(=O)(=O)c2ccc(OC(F)(F)F)cc2)[C@@H](O)[C@H](n2c3ccccc3c3ccccc32)C1` [Example 52b, (3R,4S,5S)-tert-butyl 3-(9H-carbazol-9-yl)-4-hydroxy-5-(4-(trifluoromethoxy)phenylsulfonamido)piperidine-1-carboxylate], the half-maximal inhibitory concentration (IC50) in the data set on H1650 lung cancer cells came out at 5 µM. In the case of `CC(C)(C)c1ccc2c(c1)c1ccccc1n2[C@H]1CNC[C@@H](NS(=O)(=O)c2ccc(OC(F)(F)F)cc2)[C@@H]1O` [Example 53a, N-((3R,4R,5S)-5-(3-(tert-butyl)-9H-carbazol-9-yl)-4-hydroxypiperidin-3-yl)-4-(trifluoromethoxy)benzenesulfonamide], in the data set on H1650 lung cancer cells, the IC50 is 5 µM. Take `CC(C)(C)OC(=O)N1C[C@@H](NS(=O)(=O)c2ccc(OC(F)(F)F)cc2)[C@H](O)[C@@H](n2c3ccc(F)cc3c3cc(F)ccc32)C1` [Example 54, (3S,4R,5R)-tert-butyl 3-(3,6-difluoro-9H-carbazol-9-yl)-4-hydroxy-5-(4-(trifluoromethoxy)phenylsulfonamido)piperidine-1-carboxylate]: in the data set on H1650 lung cancer cells, the IC50 is 5 µM.

With `O=S(=O)(N[C@@H]1CNC[C@H](n2c3ccc(F)cc3c3cc(F)ccc32)[C@H]1O)c1ccc(OC(F)(F)F)cc1` [Example 55, N-((3R,4R,5S)-5-(3,6-difluoro-9H-carbazol-9-yl)-4-hydroxypiperidin-3-yl)-4-(trifluoromethoxy)benzenesulfonamide], in the data set with H1650 lung cancer cells, the IC50 was 5 µM. On the same count and under the same terms, then `CC(C)(C)OC(=O)N1C[C@@H](NS(=O)(=O)c2ccc(OC(F)(F)F)cc2)[C@H](O)[C@@H](n2c3ccc(Cl)cc3c3cc(Cl)ccc32)C1` [Example 56, (3S,4R,5R)-tert-butyl 3-(3,6-dichloro-9H-carbazol-9-yl)-4-hydroxy-5-(4-(trifluoromethoxy)phenylsulfonamido)piperidine-1-carboxylate], with 5 µM; and `CC(C)(C)OC(=O)N1C[C@@H](NS(=O)(=O)c2ccc(OC(F)(F)F)cc2)[C@H](O)[C@@H](N2c3ccc(C(F)(F)F)cc3Oc3cc(C(F)(F)F)ccc32)C1` [Example 57, (3S,4R,5R)-tert-butyl 3-(3,7-bis(trifluoromethyl)-10H-phenoxazin-10-yl)-4-hydroxy-5-(4-(trifluoromethoxy)phenylsulfonamido)piperidine-1-carboxylate], with 5 µM. As for `O=S(=O)(N[C@@H]1CNC[C@H](N2c3ccc(C(F)(F)F)cc3Oc3cc(C(F)(F)F)ccc32)[C@H]1O)c1ccc(OC(F)(F)F)cc1` [Example 58, N-((3R,4R,5S)-5-(3,7-bis(trifluoromethyl)-10H-phenoxazin-10-yl)-4-hydroxypiperidin-3-yl)-4-(trifluoromethoxy)benzenesulfonamide], the IC50 in the data set with H1650 lung cancer cells came to 5 µM. Turning to `O=S(=O)(N[C@@H]1COC[C@H](N2c3ccccc3Oc3ccccc32)[C@H]1O)c1ccccc1` [Example 60, N-((3R,4R,5S)-4-hydroxy-5-(10H-phenoxazin-10-yl)tetrahydro-2H-pyran-3-yl)benzenesulfonamide], the “H1650 cell viability, % at 40 uM” value with H1650 lung cancer cells is given as 37% at 40 uM.

As for `O=S(=O)(N[C@@H]1COC[C@H](N2c3ccccc3Oc3ccccc32)[C@H]1O)c1ccc(Cl)cc1` [Example 61, 4-chloro-N-((3R,4R,5S)-4-hydroxy-5-(10H-phenoxazin-10-yl)tetrahydro-2H-pyran-3-yl)benzenesulfonamide], the IC50 in the data set with H1650 lung cancer cells worked out at 5 µM.

Consider `O=S(=O)(N[C@@H]1COC[C@H](N2c3ccccc3Oc3ccccc32)[C@H]1O)c1ccc(Cl)s1` [Example 62, 5-chloro-N-((3R,4R,5S)-4-hydroxy-5-(10H-phenoxazin-10-yl)tetrahydro-2H-pyran-3-yl)thiophene-2-sulfonamide], for which the IC50 in the data set on H1650 lung cancer cells came to 15 µM. Consider `O=S(=O)(N[C@@H]1COC[C@H](N2c3ccccc3Oc3ccccc32)[C@H]1O)c1ccc(C(F)(F)F)nc1` [Example 63, N-((3R,4R,5S)-4-hydroxy-5-(10H-phenoxazin-10-yl)tetrahydro-2H-pyran-3-yl)-6-(trifluoromethyl)pyridine-3-sulfonamide], for which the IC50 with H1650 lung cancer cells came to 20 µM.

Consider `O=S(=O)(N[C@@H]1COC[C@H](N2c3ccccc3Oc3ccccc32)[C@H]1O)c1cccc(Cl)c1` [Example 64, 3-chloro-N-((3R,4R,5S)-4-hydroxy-5-(10H-phenoxazin-10-yl)tetrahydro-2H-pyran-3-yl)benzenesulfonamide], for which the concentration for half-maximal inhibition (IC50) in the data set on H1650 lung cancer cells was determined as 15 µM. Turning to `O=S(=O)(N[C@@H]1COC[C@H](N2c3ccccc3Oc3ccccc32)[C@H]1O)c1ccccc1Cl` [Example 65, 2-chloro-N-((3R,4R,5S)-4-hydroxy-5-(10H-phenoxazin-10-yl)tetrahydro-2H-pyran-3-yl)benzenesulfonamide], in the data set with H1650 lung cancer cells, the IC50 came out at 20 µM. On to `CC(C)(C)OC(=O)Nc1ccc(S(=O)(=O)N[C@@H]2COC[C@H](N3c4ccccc4Oc4ccccc43)[C@H]2O)cc1` [Example 66, tert-butyl (4-(N-((3R,4R,5S)-4-hydroxy-5-(10H-phenoxazin-10-yl)tetrahydro-2H-pyran-3-yl)sulfamoyl)phenyl)carbamate], for which the IC50 in the data set on H1650 lung cancer cells is 5 µM. Consider `Nc1ccc(S(=O)(=O)N[C@@H]2COC[C@H](N3c4ccccc4Oc4ccccc43)[C@H]2O)cc1` [Example 67, 4-amino-N-((3R,4R,5S)-4-hydroxy-5-(10H-phenoxazin-10-yl)tetrahydro-2H-pyran-3-yl)benzenesulfonamide], for which, in the data set on H1650 lung cancer cells, the “H1650 cell viability, % at 40 uM” value stood at 56% at 40 uM. For `CC(C)(C)OC(=O)Nc1cccc(S(=O)(=O)N[C@@H]2COC[C@H](N3c4ccccc4Oc4ccccc43)[C@H]2O)c1` [Example 68, tert-butyl (3-(N-((3R,4R,5S)-4-hydroxy-5-(10H-phenoxazin-10-yl)tetrahydro-2H-pyran-3-yl)sulfamoyl)phenyl)carbamate], the IC50 in the data set with H1650 lung cancer cells was 5 µM. `Nc1cccc(S(=O)(=O)N[C@@H]2COC[C@H](N3c4ccccc4Oc4ccccc43)[C@H]2O)c1` [Example 69, 3-amino-N-((3R,4R,5S)-4-hydroxy-5-(10H-phenoxazin-10-yl)tetrahydro-2H-pyran-3-yl)benzenesulfonamide]: the “H1650 cell viability, % at 40 uM” value with H1650 lung cancer cells is 54% at 40 uM.

The record behind these values is patent US10759790B2, “Heterocyclic constrained tricyclic sulfonamides as anti-cancer agents” (ICAHN SCHOOL OF MEDICINE AT MOUNT SINAI, priority 2015, dated 2020).
